Consider 13 molecules from patent publication US11066409B2, “Bicyclic nitrogen-containing heterocyclic derivatives and pharmaceutical composition comprising the same” (Shionogi & Co., Ltd., priority 2016, dated 2021).

Data set [1] deals with partial sciatic nerve ligation model in rats. Put plainly: Analgesic effect in a Seltzer model (partial sciatic nerve ligation), mechanical allodynia by von Frey filaments. The class given is in vivo. Conditions: 1 h, rat, oral, reversal of mechanical allodynia, approximately 1 to 5 hours after administration. From the text: Preparation of Partial Sciatic Nerve Ligation Model in Rats
Rats were anaesthetized using isoflurane/O2 inhalation anaesthesia. After induction of anesthesia, the left thigh was shaved. An incision was made in the skin just below the hip bone. The muscle was bluntly dissected to expose the sciatic nerve. About one half (½) of the sciatic nerve thickness was tightly ligated with a nylon thread and the wound was closed. The right thigh was used as a sham-operated control. The right thigh underwent an identical procedure with the left hind limb, however, the sciatic nerve was not manipulated or ligated.
Two weeks after nerve ligation, the effect on mechanical allodynia was assessed using a series of von Frey filaments. For habituation, the rats were placed into a plastic cage on a wire mesh bottom. Von Frey filaments (0.4 to 26 g) were applied to the plantar surface of the rat hind paws from the wire mesh side, and the value of the filament pressure at which the paw was withdrawn was used as a pain threshold. The measurement of mechanical sensitivity of the right and left hind paws was performed to obtain predose mechanical sensitivity. The rats showing the threshold change from 0.6 to 2 g (in nerve ligated side) and 8 to 15 g (in sham operated side) were used in the experiments. On the day before the experiment, the rats were evaluated with a series of von Frey filaments to familiarize them with the test procedure. The adopted animal was administrated with the compounds of the present invention. The compounds of the present invention were homogenized with mortar and pestle and suspended or diluted in 0.5% Methyl Cellulose to prepare 0.03-100 mg/2 mL/kg suspension and orally administered to rat using a syringe attached with a sonde. Post-dose mechanical sensitivities of the right and left hind paws were measured at approximately 1 to 5 hours after drug administration. Percent reversal of mechanical allodynia for each rat was calculated using the following formula. The analgesic effects of the compounds were compared.

The target in data set [2] is human P2X7 receptor (Homo sapiens (Human), UniProt Q99572, R270H). In words: Evaluation of a human P2X7 receptor inhibitory activity (Yo-Pro uptake, BzATP stimulation, FLIPR TETRA). In kind it is cell-based. Conditions: 1321N1 cells stably expressing human P2X7 receptor, Yo-Pro fluorescence. An outline of the steps:
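1321N1 cells stably expressing human P2X7 (T606C/G952A SNP variant) in HBSS/HEPES pH 7.4–7.5 were loaded with Yo-Pro and stimulated with BzATP on FLIPR TETRA. Compound was added 8 min later and fluorescence followed for 20 min. Inhibition scaled between no-compound (0%) and reference compound (100%); IC50 by logistic fit, reported in bins A–D.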

Data set [3] concerns the target human PXR (Homo sapiens (Human), UniProt O75469). Put plainly: Evaluation of activation of human pregnane X receptor (PXR), DPX2 cells. In kind it is cell-based. Conditions: 48 hours, emission intensity divided by fluorescence intensity; for PXR 10 μM: compound 10 μM; for PXR 50 μM: compound 50 μM. Here is the method:
A Human PXR activation (Puracyp, Inc.) kit was used for evaluation.
DPX2 cells expressing human PXR were seeded in a 96-well plate at a concentration of 40000 cells/well and cultured at 37° C. under 5% carbon dioxide for 24 hours (medium: culture medium for DPX2 cells containing 10% fetal bovine serum, antibiotics, sodium pyruvate, D-glucose, and phenol red). After culture for 24 hours, a DMSO solution of the compound of the present invention was diluted with a medium (dosing medium for DPX2 cells containing 10% fetal bovine serum, D-glucose, antibiotics, sodium pyruvate, and L-glutamine) so that the final concentration was 10 and 50 μM, and a rifampicin DMSO solution as a positive control drug was 0.2, 1, 2, and 20 μM. The medium was removed from the 96-well plate after culture for 24 hours. 100 μL of the solution of the compound of the present invention and 100 μL of the rifampicin solution prepared were added to each well, and cultured for 48 hours. The medium was removed from the 96-well plate after culture for 48 hours. 100 μL of each reaction mixture obtained by adding 5.25 μL of CellTiter-Fluor to 10.5 mL of TubeE was filled therein. The plate was set in a plate reader (PerkinElmer, Inc.) after culture for 1 hour to measure the fluorescence intensity at an interval of 0.1 seconds per well. The plate was taken out. 100 μL of a solution obtained by adding ONE-Glo Assay Substrate to ONE-Glo Assaybuffer was added to each well. After 2 minutes from the addition of the solution, the plate was set in the plate reader to measure the […] at an interval of 2 seconds per well. The PXR activity of the product of the present invention was a value obtained by dividing the emission intensity by the fluorescence intensity.

Chain of human PXR (O75469 whole entry): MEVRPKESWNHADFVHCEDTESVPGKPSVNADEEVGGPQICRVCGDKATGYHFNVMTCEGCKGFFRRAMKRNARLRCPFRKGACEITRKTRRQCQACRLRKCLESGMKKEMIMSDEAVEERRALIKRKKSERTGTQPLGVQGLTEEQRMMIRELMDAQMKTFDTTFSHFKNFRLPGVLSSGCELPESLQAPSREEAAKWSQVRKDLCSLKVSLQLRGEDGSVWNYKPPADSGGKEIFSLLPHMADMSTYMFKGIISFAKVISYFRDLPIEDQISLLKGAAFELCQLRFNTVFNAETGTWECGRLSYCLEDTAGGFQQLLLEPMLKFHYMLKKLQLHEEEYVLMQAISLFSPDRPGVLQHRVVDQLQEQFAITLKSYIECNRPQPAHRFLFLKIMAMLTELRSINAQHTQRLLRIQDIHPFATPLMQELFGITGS
Chain of human P2X7 receptor (Q99572 whole entry R270H): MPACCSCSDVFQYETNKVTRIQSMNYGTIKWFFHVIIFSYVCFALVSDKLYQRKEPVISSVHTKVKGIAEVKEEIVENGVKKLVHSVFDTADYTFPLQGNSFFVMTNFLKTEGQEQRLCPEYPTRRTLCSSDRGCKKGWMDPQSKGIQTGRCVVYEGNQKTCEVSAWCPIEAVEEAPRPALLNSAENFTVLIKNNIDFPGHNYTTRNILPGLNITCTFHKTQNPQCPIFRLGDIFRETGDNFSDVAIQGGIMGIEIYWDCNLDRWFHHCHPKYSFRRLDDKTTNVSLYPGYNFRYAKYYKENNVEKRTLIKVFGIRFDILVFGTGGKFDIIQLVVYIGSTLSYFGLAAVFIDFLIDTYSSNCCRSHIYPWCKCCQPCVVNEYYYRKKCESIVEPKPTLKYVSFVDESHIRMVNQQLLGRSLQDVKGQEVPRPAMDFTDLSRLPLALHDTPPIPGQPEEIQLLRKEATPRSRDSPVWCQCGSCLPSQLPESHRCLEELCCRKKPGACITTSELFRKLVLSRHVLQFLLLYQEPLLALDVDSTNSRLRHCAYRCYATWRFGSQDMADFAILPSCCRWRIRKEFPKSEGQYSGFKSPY

`Cc1cc2c(cc1Nc1nc(=O)c(F)c3n1C(c1cc(F)cc(F)c1)CC3)COC2` (stereo not shown) [Compound I-0102]: in data set [1], the inhibition in vivo at 3 mg/kg is 55%. Besides, the half-maximal inhibitory concentration (IC50) in data set [2] came to 11 nM.
Turning to `COc1ccc(NC2=NC(=O)N(C)C3=NCC(c4cc(F)c(F)c(F)c4)N23)c(C)c1` (stereo not shown) [Compound I-0135], the inhibition in vivo at 3 mg/kg in data set [1] amounted to 52%. The IC50 in data set [2] (class symbols) is 10 to 100 nM. Also, in data set [3], the “PXR 10 μM” value was found to be 3 and the “PXR 50 μM” value came out at 9.
As for `Cc1ccc(C#N)cc1NC1=NC(=O)N(C)C2=NCC(c3cc(F)c(F)c(F)c3)N12` (stereo not shown) [Compound I-0145], in data set [1], the inhibition in vivo at 1 mg/kg came out at 58%. Further, in data set [2], half-maximal inhibition (IC50) required 19 nM. This molecule also had an IC50 in data set [2] (class symbols) of 10 to 100 nM. Moreover, in data set [3], the “PXR 10 μM” value is 1.9 and the “PXR 50 μM” value came out at 6.2.
In the case of `COc1ccc(NC2=NC(=O)N(C)C3=NCC(c4cc(F)c(F)c(F)c4)N23)c(C)c1F` (stereo not shown) [Compound I-0147], the inhibition in vivo at 1 mg/kg in data set [1] was 33%. Besides, the IC50 in data set [2] was 24 nM; in data set [2] (class symbols), 10 to 100 nM.
On to `COc1cc(NC2=NC(=O)N(C)C3=NCC(c4cc(F)c(F)c(F)c4)N23)c(C)cc1F` (stereo not shown) [Compound I-0149], for which the inhibition in vivo at 1 mg/kg in data set [1] came out at 41%. Besides, the IC50 in data set [2] was 21 nM.
Turning to `CCc1nc(OC)ccc1NC1=NC(=O)N(C)C2=NCC(c3cc(F)c(F)c(F)c3)N12` (stereo not shown) [Compound I-0154], the inhibition in vivo at 1 mg/kg in data set [1] turned out to be 44%. The midpoint of inhibition in data set [2], the IC50, lay at 17 nM. For the same molecule, in data set [3], the “PXR 10 μM” value came to 7.9 and the “PXR 50 μM” value amounted to 15.8.
Take `COCCOc1ccc(C)c(NC2=NC(=O)N(C)C3=NCC(c4cc(F)c(F)c(F)c4)N23)c1` (stereo not shown) [Compound I-0158]: in data set [1], the inhibition in vivo at 1 mg/kg came to 47%. Also, the IC50 in data set [2] worked out at 27 nM. Further, in data set [3], the “PXR 10 μM” value is listed as 1.2 and the “PXR 50 μM” value worked out at 4.7.
The matching figures for `Cc1ccc(CO)cc1NC1=NC(=O)N(C)C2=NCC(c3cc(F)c(F)c(F)c3)N12` (stereo not shown) [Compound I-0161]: 51%, 19 nM, 1.2 and 2.5.
`Cc1cc2c(cc1NC1=NC(=O)N(C)C3=NCC(c4cc(F)c(F)c(F)c4)N13)COC2` (stereo not shown) [Compound I-0164]: in data set [1], the inhibition in vivo at 1 mg/kg turned out to be 47%. Moreover, in data set [2], the IC50 came out at 28 nM. In data set [3], the “PXR 10 μM” value stood at 10.6 and the “PXR 50 μM” value worked out at 25.
Turning to `Cc1cc(F)c(CO)cc1NC1=NC(=O)N(C)C2=NCC(c3cc(F)c(F)c(F)c3)N12` (stereo not shown) [Compound I-0168], in data set [1], the inhibition in vivo at 1 mg/kg was found to be 53%. Further, in data set [3], the “PXR 10 μM” value is 0.9 and the “PXR 50 μM” value was determined as 1.7.
The matching figures for `Cc1ccc(OCCO)cc1NC1=NC(=O)N(C)C2=NCC(c3cc(F)c(F)c(F)c3)N12` (stereo not shown) [Compound I-0171]: 52%, 1.2 and 2.5.
Consider `Cc1ccc(OC(F)F)cc1NC1=NC(=O)N(C)C2=NCC(c3cc(F)c(F)c(F)c3)N12` (stereo not shown) [Compound I-0192], for which, in data set [1], the inhibition in vivo at 1 mg/kg is 50%. In data set [2], this molecule yielded an IC50 of 18 nM. Further, in data set [3], the “PXR 10 μM” value amounted to 7.9 and the “PXR 50 μM” value was 15.
The corresponding values for `COCc1ccc(C)c(NC2=NC(=O)N(C)C3=NCC(c4cc(F)c(F)c(F)c4)N23)c1` (stereo not shown) [Compound I-0201] are 51%, 26 nM, 4 and 13.5.

The inhibition in vivo is the share of the control response that was lost under treatment. In general, IC50 refers to the concentration needed to halve the response being measured.
